Test system: Metabolism protein genes
Assay: DNA chip mRNA expression in yeast, metabolism protein genes (Table 7)
Type: cell-based, Saccharomyces cerevisiae S288C
Protocol: Yeast (Saccharomyces cerevisiae S288C (α SUC2mal mel gap2 CUP1)) were incubated at 25° C. on YPD medium (yeast extract 1%, polypepton 2%, glucose 2%). One of toxic chemical substances was added to the cells at logarithmic growth phase, and the cells were further incubated for two hours. Cells were cultured without any chemical substance in the same condition, and were used as control. Concentrations of the chemical substances were defined to inhibit the growth of the yeast but not lead to death.
After completion of the incubation, the culture was centrifuged to collect the cells. To the cells, sodium acetate buffer (50 mM sodium acetate, 10 mM EDTA, 1% SDS) was added, and the mixture was shaken at 65° C. for five minutes, followed by returning to room temperature, and obtaining the supernatant, of which the procedures were repeated two times. To the supernatant, ½ amount of a solution of phenol/chloroform was added, and the mixture was centrifuged to give a supernatant, which was added with an equal amount of chloroform, and the mixture was centrifuged to give a supernatant. To the supernatant, an equal amount of isopropanol containing 0.3 M sodium acetate was added, and the mixture was allowed to stand at room temperature for 30 minutes, after which the mixture was centrifuged to give a sediment of the whole RNAs. Seventy % ethanol was added to the sediment, and the mixture was again centrifuged to give a sediment, which was then dried and dissolved in water. mRNA was isolated from the whole RNAs as followings. In view of the fact that a poly A chain is attached to the 3′ terminus of mRNA, a polynucleotide having a poly T structure which was immobilized on the surface of latex beads was used to trap the mRNA, and then the mRNA was washed and eluted with spine column (Oligotex-dT30<Super>mRNA Purification Kit, Takara). Reverse transcription of the mRNA was conducted with a reverse transcriptase (Super Script II Reverse Transcriptase; catalogue No. 18064-014, GibcoBRL) using fluorescence-labeled nucleotides to give cDNAs that were introduced with Cy3-dUTP or Cy5-dUTP during the reverse transcription.
The labeled cDNAs were dissolved in TE buffer (10mM Tris-HCl/1 mM EDTA, pH8.0), and the solution was dropped on the DNA chip containing the whole genes of yeast (DNA Chip Research Inc. Japan) so that the cDNAs were hybridized on the DNA chip at 65° C. for over 12 hours. The fluoresces intensity of the DNA chip was read with a scanner, and the ratio relative to the fluorescence intensity resulting from the absence of chemical substance was estimated as the following, which is shown in Tables 1 to 9: […]

Which results are given for `[Cl][Pb][Cl]` [(4), PbCl2]?
The level of expressed mRNA in the presence of chemical substance/The level of expressed mRNA in the absence of chemical substance (yeast gene YJR155W): 2.5; The level of expressed mRNA in the presence of chemical substance/The level of expressed mRNA in the absence of chemical substance (yeast gene YKL035W): 1.2; level of expressed mRNA in the presence/in the absence of chemical substance (yeast gene YKL060C): 1.0; The level of expressed mRNA in the presence of chemical substance/The level of expressed mRNA in the absence of chemical substance (yeast gene YKL091C): 2.6; The level of expressed mRNA in the presence of chemical substance/The level of expressed mRNA in the absence of chemical substance (yeast gene YKL104C): 1.2; level of expressed mRNA in the presence/in the absence of chemical substance (yeast gene YKL148C): 0.7; The level of expressed mRNA in the presence of chemical substance/The level of expressed mRNA in the absence of chemical substance (yeast gene YKL152C): 0.9; level of expressed mRNA in the presence/in the absence of chemical substance (yeast gene YKL157W): 1.3; The level of expressed mRNA in the presence of chemical substance/The level of expressed mRNA in the absence of chemical substance (yeast gene YKL213C): 1.3; The level of expressed mRNA in the presence of chemical substance/The level of expressed mRNA in the absence of chemical substance (yeast gene YKL215C): 0.8; level of expressed mRNA in the presence/in the absence of chemical substance (yeast gene YKR034W): 4.7; The level of expressed mRNA in the presence of chemical substance/The level of expressed mRNA in the absence of chemical substance (yeast gene YLL058W): 0.9; level of expressed mRNA in the presence/in the absence of chemical substance (yeast gene YLR006C): 6.2; level of expressed mRNA in the presence/in the absence of chemical substance (yeast gene YLR044C): 0.9; level of expressed mRNA in the presence/in the absence of chemical substance (yeast gene YLR056W): 0.8; level of expressed mRNA in the presence/in the absence of chemical substance (yeast gene YLR058C): 2.6; level of expressed mRNA in the presence/in the absence of chemical substance (yeast gene YLR081W): 3.6; level of expressed mRNA in the presence/in the absence of chemical substance (yeast gene YLR089C): 0.9; The level of expressed mRNA in the presence of chemical substance/The level of expressed mRNA in the absence of chemical substance (yeast gene YLR180W): 1.0; The level of expressed mRNA in the presence of chemical substance/The level of expressed mRNA in the absence of chemical substance (yeast gene YLR273C): 2.4; level of expressed mRNA in the presence/in the absence of chemical substance (yeast gene YLR284C): 1.9; The level of expressed mRNA in the presence of chemical substance/The level of expressed mRNA in the absence of chemical substance (yeast gene YLR299W): 1.3; The level of expressed mRNA in the presence of chemical substance/The level of expressed mRNA in the absence of chemical substance (yeast gene YLR300W): 1.0; level of expressed mRNA in the presence/in the absence of chemical substance (yeast gene YLR304C): 0.7; The level of expressed mRNA in the presence of chemical substance/The level of expressed mRNA in the absence of chemical substance (yeast gene YLR307W): 3.3; The level of expressed mRNA in the presence of chemical substance/The level of expressed mRNA in the absence of chemical substance (yeast gene YLR348C): 1.2; level of expressed mRNA in the presence/in the absence of chemical substance (yeast gene YLR354C): 1.5; level of expressed mRNA in the presence/in the absence of chemical substance (yeast gene YLR372W): 0.8; level of expressed mRNA in the presence/in the absence of chemical substance (yeast gene YML022W): 1.1; The level of expressed mRNA in the presence of chemical substance/The level of expressed mRNA in the absence of chemical substance (yeast gene YML054C): 3.4; The level of expressed mRNA in the presence of chemical substance/The level of expressed mRNA in the absence of chemical substance (yeast gene YML070W): 1.9; The level of expressed mRNA in the presence of chemical substance/The level of expressed mRNA in the absence of chemical substance (yeast gene YML100W): 1.4; The level of expressed mRNA in the presence of chemical substance/The level of expressed mRNA in the absence of chemical substance (yeast gene YMR008C): 1.0; level of expressed mRNA in the presence/in the absence of chemical substance (yeast gene YMR011W): 5.5; level of expressed mRNA in the presence/in the absence of chemical substance (yeast gene YMR015C): 0.9; The level of expressed mRNA in the presence of chemical substance/The level of expressed mRNA in the absence of chemical substance (yeast gene YMR020W): 1.7; level of expressed mRNA in the presence/in the absence of chemical substance (yeast gene YMR083W): 1.1; The level of expressed mRNA in the presence of chemical substance/The level of expressed mRNA in the absence of chemical substance (yeast gene YMR105C): 4.2; The level of expressed mRNA in the presence of chemical substance/The level of expressed mRNA in the absence of chemical substance (yeast gene YMR189W): 2.8; level of expressed mRNA in the presence/in the absence of chemical substance (yeast gene YMR205C): 0.8; level of expressed mRNA in the presence/in the absence of chemical substance (yeast gene YMR261C): 0.8; The level of expressed mRNA in the presence of chemical substance/The level of expressed mRNA in the absence of chemical substance (yeast gene YMR271C): 2.0; The level of expressed mRNA in the presence of chemical substance/The level of expressed mRNA in the absence of chemical substance (yeast gene YMR296C): 2.6; level of expressed mRNA in the presence/in the absence of chemical substance (yeast gene YMR323W): 1.1; The level of expressed mRNA in the presence of chemical substance/The level of expressed mRNA in the absence of chemical substance (yeast gene YNL012W): 0.8; level of expressed mRNA in the presence/in the absence of chemical substance (yeast gene YNL025C): 12.8; The level of expressed mRNA in the presence of chemical substance/The level of expressed mRNA in the absence of chemical substance (yeast gene YNL045W): 1.3; The level of expressed mRNA in the presence of chemical substance/The level of expressed mRNA in the absence of chemical substance (yeast gene YNL104C): 0.9; The level of expressed mRNA in the presence of chemical substance/The level of expressed mRNA in the absence of chemical substance (yeast gene YNL106C): 1.5; The level of expressed mRNA in the presence of chemical substance/The level of expressed mRNA in the absence of chemical substance (yeast gene YNL169C): 1.2; level of expressed mRNA in the presence/in the absence of chemical substance (yeast gene YNL192W): 1.6; The level of expressed mRNA in the presence of chemical substance/The level of expressed mRNA in the absence of chemical substance (yeast gene YNL231C): 0.5; The level of expressed mRNA in the presence of chemical substance/The level of expressed mRNA in the absence of chemical substance (yeast gene YNL322C): 0.8; The level of expressed mRNA in the presence of chemical substance/The level of expressed mRNA in the absence of chemical substance (yeast gene YNL331C): 1.0; The level of expressed mRNA in the presence of chemical substance/The level of expressed mRNA in the absence of chemical substance (yeast gene YNL332W): 2.0; The level of expressed mRNA in the presence of chemical substance/The level of expressed mRNA in the absence of chemical substance (yeast gene YNR019W): 1.2; The level of expressed mRNA in the presence of chemical substance/The level of expressed mRNA in the absence of chemical substance (yeast gene YNR033W): 1.0; The level of expressed mRNA in the presence of chemical substance/The level of expressed mRNA in the absence of chemical substance (yeast gene YNR059W): 1.4; The level of expressed mRNA in the presence of chemical substance/The level of expressed mRNA in the absence of chemical substance (yeast gene YOL058W): 0.9; level of expressed mRNA in the presence/in the absence of chemical substance (yeast gene YOL086C): 1.1; level of expressed mRNA in the presence/in the absence of chemical substance (yeast gene YOL108C): 1.9; level of expressed mRNA in the presence/in the absence of chemical substance (yeast gene YOL116W): 2.8; The level of expressed mRNA in the presence of chemical substance/The level of expressed mRNA in the absence of chemical substance (yeast gene YOL126C): 1.6; The level of expressed mRNA in the presence of chemical substance/The level of expressed mRNA in the absence of chemical substance (yeast gene YOL153C): 3.9; level of expressed mRNA in the presence/in the absence of chemical substance (yeast gene YOL156W): 1.1; The level of expressed mRNA in the presence of chemical substance/The level of expressed mRNA in the absence of chemical substance (yeast gene YOL165C): 0.9; level of expressed mRNA in the presence/in the absence of chemical substance (yeast gene YOR002W): 0.9; level of expressed mRNA in the presence/in the absence of chemical substance (yeast gene YOR085W): 1.0; The level of expressed mRNA in the presence of chemical substance/The level of expressed mRNA in the absence of chemical substance (yeast gene YOR099W): 1.3; level of expressed mRNA in the presence/in the absence of chemical substance (yeast gene YOR103C): 1.8; level of expressed mRNA in the presence/in the absence of chemical substance (yeast gene YOR108W): 0.6; level of expressed mRNA in the presence/in the absence of chemical substance (yeast gene YOR128C): 2.1; The level of expressed mRNA in the presence of chemical substance/The level of expressed mRNA in the absence of chemical substance (yeast gene YOR130C): 1.0; level of expressed mRNA in the presence/in the absence of chemical substance (yeast gene YOR142W): 1.0; level of expressed mRNA in the presence/in the absence of chemical substance (yeast gene YOR176W): 0.9; level of expressed mRNA in the presence/in the absence of chemical substance (yeast gene YOR178C): 2.3; level of expressed mRNA in the presence/in the absence of chemical substance (yeast gene YOR251C): 1.8; The level of expressed mRNA in the presence of chemical substance/The level of expressed mRNA in the absence of chemical substance (yeast gene YOR336W): 1.0; The level of expressed mRNA in the presence of chemical substance/The level of expressed mRNA in the absence of chemical substance (yeast gene YOR347C): 2.2; level of expressed mRNA in the presence/in the absence of chemical substance (yeast gene YOR348C): 2.0; The level of expressed mRNA in the presence of chemical substance/The level of expressed mRNA in the absence of chemical substance (yeast gene YPL017C): 1.0; level of expressed mRNA in the presence/in the absence of chemical substance (yeast gene YPL028W): 0.9; level of expressed mRNA in the presence/in the absence of chemical substance (yeast gene YPL057C): 3.1; level of expressed mRNA in the presence/in the absence of chemical substance (yeast gene YPL135W): 1.2; level of expressed mRNA in the presence/in the absence of chemical substance (yeast gene YPL148C): 2.3; The level of expressed mRNA in the presence of chemical substance/The level of expressed mRNA in the absence of chemical substance (yeast gene YPR026W): 1.3; level of expressed mRNA in the presence/in the absence of chemical substance (yeast gene YPR113W): 1.3; level of expressed mRNA in the presence/in the absence of chemical substance (yeast gene YPR165W): 1.0; The level of expressed mRNA in the presence of chemical substance/The level of expressed mRNA in the absence of chemical substance (yeast gene YPR167C): 0.8; level of expressed mRNA in the presence/in the absence of chemical substance (yeast gene YPR183W): 0.8

From patent US8192962B2, “Processes for detecting toxic substances” (Daikin Industries, Ltd., priority 2001, dated 2012)
